Source: patent US20220117867A1, “ANTIMICROBIAL ACTIVITY OF FATTY ACID ESTERS AND COMBINATIONS THEREOF” (SYMRISE AG, priority 2019, published 2022)
Converted amounts (≈) assume the structure as drawn.

Key:
Type in all cases: cell-based
[1] = test system: Staphylococcus aureus; assay: Preservative Efficacy Test (method C); settings: S. aureus; for Colony counts: 1% test substance in o/w emulsion; for Relative colony counts: relative to inoculum = 1.0000
Method: (§1) C) Preservative Efficacy Test
(§2) Test conditions: Sample (1% test substance in adequate formulation (o/w emulsion)) was inoculated with 0.1 ml of the microbial suspensions, homogenized, and incubated at 20° C.-25° C. Colony count was determined after 2, 7, 14, and 28 days of incubation through plating on adequate solid medium.
(§3) 3-hydroxypropyl caprylate was tested in a potential formulation against the microorganisms Escherichia coli, Pseudomonas aeruginosa, Staphylococcus aureus, and Candida albicans using method C. Resulting colony counts are depicted in Table 4.

[2] = test system: Pseudomonas aeruginosa; assay: Preservative Efficacy Test (method C); settings: P. aeruginosa; for Colony counts: 1% test substance in o/w emulsion; for Relative colony counts: relative to inoculum = 1.0000
Method: as §1, §2, §3

[3] = test system: Escherichia coli; assay: Preservative Efficacy Test (method C); settings: E. coli; for Colony counts: 1% test substance in o/w emulsion; for Relative colony counts: relative to inoculum = 1.0000
Method: as §1, §2, §3

[4] = test system: Candida albicans; assay: Preservative Efficacy Test (method C)
Method: as §1, §2, §3

[5] = test system: Porphyromonas gingivalis; assay: Minimum Inhibitory Concentration (MIC) Method A
Method: (§4) A) Minimum Inhibitory Concentration (MIC) Method A The MIC test is a test on growth inhibition. Estimation of Minimum Inhibitory Concentration (MIC) is executed in 96 well plates. Through the comparison of bacterial growth curves with positive and negative controls via optical density (OD), different concentrations of given test substances are evaluated. Bacteria are cultivated under adjusted conditions based on information of the German Collection of Microorganisms and Cell Cultures (DSMZ) and stored in 50% Glycerol prior to use. Afterwards, the following method was applied: Adding growth medium (according to microorganism) to each well of the microplate. Adding the test-substances in different concentrations, positive controls (water controls only with medium) and negative controls (benchmarks according to organism). Adding the microorganism in a concentration of 10^6 CFU/ml (CFU=colony forming units). Incubation of the microplates at appropriate conditions. Aerobic microorganism: optical density is continuously measured (microplate reader) during incubation. Anaerobic microorganism: incubation in an anaerobic chamber, measurement of the optical density at the end of the incubation, comparison of the results with positive and negative controls. According to resulting growth curves, substance concentrations are labelled either as inhibiting or normal growth and MIC is defined as the lowest concentration where a clear inhibition is visible. Experiments at concentration limits (highest concentration labelled as growth and lowest concentration labelled as inhibiting) are performed at least twice.

[6] = test system: Prevotella intermedia; assay: Minimum Inhibitory Concentration (MIC) Method A
Method: as §4

[7] = test system: Fusobacterium nucleatum; assay: Minimum Inhibitory Concentration (MIC) Method A
Method: as §4

[8] = test system: Staphylococcus hominis; assay: Minimum Inhibitory Concentration (MIC) Method A
Method: as §4

[9] = test system: Corynebacterium xerosis; assay: Minimum Inhibitory Concentration (MIC) Method A; settings: read-out: MIC
Method: as §4

[10] = test system: Candida albicans; assay: Minimum Inhibitory Concentration (MIC) Method A
Method: as §4

[11] = test system: Aspergillus brasiliensis; assay: Minimum Inhibitory Concentration (MIC) Method B, DIN 58940; Synergy Index according to Kull; settings: Method B (Example 5), A. brasiliensis, single substance
Method: (§5) B) Minimum Inhibitory Concentration (MIC) Method B
(§6) Test conditions: Evaluation of bactericidal and fungicidal activity in qualitative suspension test (VAH-standard methods, 04-2015). 5 ml of the appropriate dilution of the test product is mixed with 0.1 ml of test suspension and mixed well. After the required action times, the mixture was mixed again. Each 0.1 ml were removed and placed in 5 ml of CSL-bouillon without neutralizing agents.
(§7) In order to calculate the synergy index with MIC values, the Kull equation (I) was used as follows:
(§8) SI=(MICmixture×PA)/MICA+(MICmixture×PB)/MICB (I)
(§9) The synergistic activity of 3-hydroxypropyl caprylate and glyceryl caprylate on several bacterial and fungal reference strains for application in either Deodorant application or as preservative was determined by measuring minimum inhibitory concentrations (MIC values) according to DIN 58940 and method B (method section above).

[12] = test system: Staphylococcus hominis; assay: as above; settings: Method B (Example 5), S. hominis, single substance
Method: as §5, §6, §7, §8, §9

[13] = test system: Escherichia coli; assay: as above; settings: Method B (Example 5), E. coli, single substance
Method: as §5, §6, §7, §8, §9

[14] = test system: Aspergillus brasiliensis; assay: Minimum Inhibitory Concentration (MIC) Method A; settings: read-out: MIC
Method: (§10) A) Minimum Inhibitory Concentration (MIC) Method A
(§11) The MIC test is a test on growth inhibition. Estimation of Minimum Inhibitory Concentration (MIC) is executed in 96 well plates. Through the comparison of bacterial growth curves with positive and negative controls via optical density (OD), different concentrations of given test substances are evaluated.
(§12) Bacteria are cultivated under adjusted conditions based on information of the German Collection of Microorganisms and Cell Cultures (DSMZ) and stored in 50% Glycerol prior to use. Afterwards, the following method was applied:
(§13) Adding growth medium (according to microorganism) to each well of the microplate.
(§14) Adding the test-substances in different concentrations, positive controls (water controls only with medium) and negative controls (benchmarks according to organism).
(§15) Adding the microorganism in a concentration of 10^6 CFU/ml (CFU=colony forming units). Incubation of the microplates at appropriate conditions.
(§16) Aerobic microorganism: optical density is continuously measured (microplate reader) during incubation.
(§17) According to resulting growth curves, substance concentrations are labelled either as inhibiting or normal growth and MIC is defined as the lowest concentration where a clear inhibition is visible. Experiments at concentration limits (highest concentration labelled as growth and lowest concentration labelled as inhibiting) are performed at least twice.

[15] = test system: Escherichia coli; assay: Minimum Inhibitory Concentration (MIC) Method A; settings: read-out: MIC
Method: as §10, §11, §12, §13, §14, §15, §16, §17

## CCCCCCCC(=O)OCCCO [3-hydroxypropyl caprylate]
[1]; Day 2, inoculum 3500000
  Colony counts: 250000 cfu/g formulation
[1]; Day 2
  Relative colony counts: 0.0714 fraction of inoculum
[1]; Day 7
  Colony counts: >10 cfu/g formulation
  Relative colony counts: 0.0000 fraction of inoculum
[1]; Day 14
  Colony counts: >10 cfu/g formulation
  Relative colony counts: 0.0000 fraction of inoculum
[1]; Day 28
  Colony counts: >10 cfu/g formulation
  Relative colony counts: 0.0000 fraction of inoculum
[2]; Day 2, inoculum 4400000
  Colony counts: >10 cfu/g formulation
[2]; Day 2
  Relative colony counts: 0.0000
[2]; Day 7
  Colony counts: >10 cfu/g formulation
  Relative colony counts: 0.0000
[2]; Day 14
  Colony counts: >10 cfu/g formulation
  Relative colony counts: 0.0000
[2]; Day 28
  Colony counts: >10 cfu/g formulation
  Relative colony counts: 0.0000
[3]; Day 2, inoculum 4500000
  Colony counts: 15 cfu/g formulation
[3]; Day 2
  Relative colony counts: 0.0000
[3]; Day 7
  Colony counts: >10 cfu/g formulation
  Relative colony counts: 0.0000
[3]; Day 14
  Colony counts: >10 cfu/g formulation
  Relative colony counts: 0.0000
[3]; Day 28
  Colony counts: >10 cfu/g formulation
  Relative colony counts: 0.0000
[4]; Day 2, 1% test substance in o/w emulsion, inoculum 4200000
  Colony counts: 330000 cfu/g formulation
[4]; Day 2, relative to inoculum = 1.0000
  Relative colony counts: 0.0786
[4]; Day 7, 1% test substance in o/w emulsion
  Colony counts: >10 cfu/g formulation
[4]; Day 7, relative to inoculum = 1.0000
  Relative colony counts: 0.0000
[4]; Day 14, 1% test substance in o/w emulsion
  Colony counts: >10 cfu/g formulation
[4]; Day 14, relative to inoculum = 1.0000
  Relative colony counts: 0.0000
[4]; Day 28, 1% test substance in o/w emulsion
  Colony counts: >10 cfu/g formulation
[4]; Day 28, relative to inoculum = 1.0000
  Relative colony counts: 0.0000
[5]
  MIC: 250 µg/mL (≈ 1240 µM)
[6]
  MIC: 125 µg/mL (≈ 618 µM)
[7]
  MIC: 250 µg/mL (≈ 1240 µM)
[8]
  MIC: 1000 µg/mL (≈ 4940 µM)
[9]
  MIC: 500 µg/mL (≈ 2470 µM)
[10]
  MIC: 500 µg/mL (≈ 2470 µM)
[11]
  MIC: 1000 µg/mL
[12]
  MIC: 1000 µg/mL
[13]
  MIC: 1000 µg/mL
[14]
  MIC: 1000 µg/mL (≈ 4940 µM)
[15]
  MIC: 1000 µg/mL (≈ 4940 µM)
